Experimental data reported in patent publication US8927599B2, “Use of statins as anticonvulsants, antiepileptics and neuroprotectors” (Neuron Biopharma, S.A., priority 2008, dated 2015).
Where two headings read alike, the source gives them in different places.

What was measured:
[1] = test system: male mice of the FVB/N strain inoculated with kainate (KA); assay: Kainate-induced convulsions, epilepsy level on the Racine scale and latency (Example 1); type: in vivo; conditions: for time of the onset of the first convulsion (latency): KA 30 mg/kg i.p., FIG. 1
Protocol: (§1) All the animals included during the experimental process were 16 week old male mice of the FVB/N strain [Taconic Farms, Inc. (www.taconic.com)]. The experiments were carried out strictly following the Guidance on the Operation of Animals (Scientific Procedures, Act. 1986). The animals had their respective quarantine period and were treated with maximum precaution to minimize possible contaminations during inoculations and handling.
The animals, distributed into different groups, were intraperitoneally inoculated with 30 mg/kg of kainate (KA) dissolved in phosphate buffer saline (PBS), according to the following protocol: • seven animals were pretreated, at 24 and 0.5 hours before the inoculation with KA, with PBS by means of intraperitoneal (i.p.) injection; • six animals were pretreated, at 24 and 0.5 hours before the inoculation with KA, with simvastatin at a dose of 50 mg/kg by means of i.p. injection; and • four animals were pretreated, at 24 and 0.5 hours before the inoculation with KA, with DNQX (a specific inhibitor of KA receptors) at a dose of 30 mg/kg, by means of i.p. injection.
(§2) After the inoculation with KA, the animals were individually housed in cages to monitor them. The maximum epilepsy level of the animals was recorded every 10 minutes during the observation according to the Racine scale and for at least 120 minutes post-inoculation (m.p.i.).

patient = conditions: cited from earlier work
[2] = test system: male mice of the FVB/N strain inoculated with kainate (KA); assay: Kainate-induced convulsions and status epilepticus, lovastatin (Example 10); type: in vivo; conditions: KA 25 mg/kg i.p., 50 mg/kg i.p. at 24 and 0.5 h before KA
Protocol: as §1, with “12” for “16”
The mice, distributed into different groups, were intraperitoneally inoculated with 25 mg/kg of KA dissolved in PBS, according to the following protocol: • five mice were pretreated, at 24 and 0.5 hours before the inoculation with KA, with PBS by means of intraperitoneal (i.p.) injection; and • five animals were pretreated, at 24 and 0.5 hours before the inoculation with KA, with lovastatin at a dose of 50 mg/kg by means of i.p. injection
as §2, with “(m.p.i.). Comparative studies of the epilepsy levels between the treatment with PBS and with lovastatin (FIG. 12) were subsequently conducted. […]” for “(m.p.i.).”

[3] = test system: male mice of the FVB/N strain inoculated with kainate (KA); assay: Effect of the route of administration, kainate model (Example 3); type: in vivo; conditions: FIG. 5
Protocol: As shown in Examples 1 and 2, simvastatin has antiepileptic properties and such properties depend on the dose at which said compound is administered. Due to these observations, the inventors decided to investigate if the antiepileptic effect of simvastatin would also be modulated by the route of administration. All the animals included during the experimental process were 16 week old male mice of the FVB/N strain. The experiments were carried out strictly following the Guidance on the Operation of Animals (Scientific Procedures, Act. 1986). The animals had their respective quarantine period and were treated with maximum precaution to minimize possible contaminations during inoculations and handling.
The animals, distributed into different groups, were intraperitoneally inoculated with 25 mg/kg of KA dissolved in PBS, according to the following protocol: • three animals were pretreated, at 24 and 0.5 hours before the inoculation with KA, with simvastatin at a dose of 50 mg/kg by means of direct oral administration; and • two animals were pretreated, at 24 and 0.5 hours before the inoculation with KA, with simvastatin at a dose of 50 mg/kg by means of i.p. injection
as §2

SMILES: O=[N+]([O-])c1cc2nc(O)c(O)nc2cc1[N+](=O)[O-] [DNQX]
- time of the onset of the first convulsion (latency) ([1]; pretreated 30 mg/kg i.p. at 24 and 0.5 h before KA): 23.3 ± 7.6 min
- epilepsy level (Racine scale) versus PBS ([1]; after 30 m.p.i. of KA 30 mg/kg, 30 mg/kg i.p. pretreatment, FIG. 3): prevents the increase of the epileptic levels

SMILES: CC(C)n1c(/C=C/C(O)CC(O)CC(=O)O)c(-c2ccc(F)cc2)c2ccccc21 (centres unmarked) [fluvastatin]
- adverse event after administration to a patient (patient; patient with catastrophic antiphospholipid syndrome, Miesbach et al., J Neurol Sci. 2005): focal convulsions

SMILES: CC[C@H](C)C(=O)O[C@H]1C[C@@H](C)C=C2C=C[C@H](C)[C@H](CC[C@@H]3C[C@@H](O)CC(=O)O3)[C@H]21 [lovastatin]
- entrance into status epilepticus ([2]; PBS 3 of 5): 0 of 5
- epilepsy symptoms (Racine scale) at the end of the observation time ([2]; PBS+KA about 3, p-value=0.00059, FIG. 12): completely reduced the epilepsy symptoms

SMILES: CC(C)c1nc(N(C)S(C)(=O)=O)nc(-c2ccc(F)cc2)c1/C=C/[C@@H](O)C[C@@H](O)CC(=O)O [rosuvastatin]
- adverse event after administration to a patient (patient; Lorenzoni et al., Arq Neuropsiquiatr. 2007): severe rhabdomyolysis with convulsions and coma

SMILES: CCC(C)(C)C(=O)O[C@H]1C[C@@H](C)C=C2C=C[C@H](C)[C@H](CC[C@@H]3C[C@@H](O)CC(=O)O3)[C@H]21 [simvastatin]
- time of the onset of the first convulsion (latency) ([1]; pretreated 50 mg/kg i.p. at 24 and 0.5 h before KA): 50.0 ± 11.8 min
- mean epilepsy level (Racine scale) ([1]; after 30 m.p.i. of KA 30 mg/kg, 50 mg/kg i.p. pretreatment, FIG. 2): ≤ 4
- epileptic level (Racine scale) ([3]; 50 mg/kg direct oral administration, reached at 100 m.p.i. and maintained until 120 m.p.i., KA 25 mg/kg): 2
- epileptic level (Racine scale) ([3]; 50 mg/kg i.p., 70 m.p.i. of KA 25 mg/kg): 2
- epileptic level (Racine scale) ([3]; 50 mg/kg i.p., 120 m.p.i. of KA 25 mg/kg): 1
